Test results published in patent US9962369B2, “Methods and compositions for transdermal delivery” (SPRAYABLE HOLDINGS, INC., priority 2014, dated 2018).
Values belong to the compound of their own block, whether it stands above or below them.

What was measured:
[1] = Transdermal delivery of melatonin: plasma level of melatonin after applying composition to skin of a subject; details: control 2.0 ml of […] melatonin suspension in water, plasma level at 1, 2, 4, 8 hours
[2] = system: human skin tissue; test: Penetration rate of AI compound in AI-helper composition through human skin in vitro, modified Franz cells; assay type: in vitro ADME; details: for Skin penetration rate of Al compound: Al compound 0.5% w/v; for Skin penetration rate of Al compound / Skin penetration rate of AI compound: 25 °C; for Skin penetration rate of lipoic acid: alpha-lipoic acid 0.5% w/v, Tyrosine isopropyl ester•HA 6% w/v, 20° C.
Experimental: Penetration rate of AI compound in the AI-helper composition through human skin were measured in vitro by modified Franz cells. A Franz cell had two chambers: the top sample chamber and the bottom receiving chamber. The human skin tissue (450-500 μm thick) that separated the top and the receiving chambers was isolated from the anterior or posterior thigh areas.

[3] = 0.375 mL of 7% helper ester + 0.8% melatonin in water on skin of the back (20 cm×20 cm)
[4] = 2-(Diethylamino)ethyl 2-(4-isobutylphenyl)propionate hydrochloride 6% w/v, water
[5] = D-Phenylalanine isopropyl ester hydrochloride 6% w/v, water
[6] = Dialkylaminoalkyl 2-(4-isobutylphenyl)propionate: None
[7] = L-Phenylalanine isopropyl ester hydrochloride 6% w/v, water
[8] = no isoleucine ester (None), AI compound 0.5 % w/v in water
[9] = no leucine ester (None), AI compound 0.5 % w/v in water
[10] = no tryptophan ester (None), AI compound 0.5 % w/v in water
[11] = with D-isoleucine isopropyl ester hydrochloride 6 % w/v in water, AI compound 0.5 % w/v
[12] = with D-leucine isopropyl ester hydrochloride 6 % w/v in water, AI compound 0.5 % w/v
[13] = with D-tryptophan isopropyl ester hydrochloride 6 % w/v in water, AI compound 0.5 % w/v
[14] = with L-isoleucine isopropyl ester hydrochloride 6 % w/v in water, AI compound 0.5 % w/v
[15] = with L-leucine isopropyl ester hydrochloride 6 % w/v in water, AI compound 0.5 % w/v
[16] = with L-tryptophan isopropyl ester hydrochloride 6 % w/v in water, AI compound 0.5 % w/v

Compound: CCCCN(CCCC)CCOC(=O)c1ccccc1OC(C)=O [2-(Dibutylamino)ethyl 2-acetoxybenzoate]
transdermal delivery of melatonin compared to control composition (A) [1, 3]: more efficient and effective transdermal delivery of melatonin

Compound: CCN(CC)CCOC(=O)c1ccccc1OC(C)=O [2-(Diethylamino)ethyl 2-acetoxybenzoate]
transdermal delivery of melatonin compared to control composition (A) [1, 3]: more efficient and effective transdermal delivery of melatonin

Compound: CC(C)Cc1ccc(C(C)C(=O)OCCN(C)C)cc1 (stereo not shown) [2-(Dimethylamino)ethyl 2-(4-isobutylphenyl)propionate]
transdermal delivery of melatonin compared to control composition (A) ([1]; 0.60 mL of 7% helper ester + 0.5% melatonin in water on skin of the back (20 cm×20 cm)): more efficient and effective transdermal delivery of melatonin

Compound: NCCS(=O)(=O)O [Taurine]
Skin penetration rate of Al compound [2, 4]: 8.711 ± 1.871 μg/cm^2/h
Skin penetration rate of Al compound [2, 5]: 8.339 ± 2.178 μg/cm^2/h
Skin penetration rate of Al compound [2, 6]: 0.012 ± 0.006 μg/cm^2/h
Skin penetration rate of Al compound [2, 7]: 8.372 ± 2.237 μg/cm^2/h
Skin penetration rate of Al compound ([2]; Phenylalanine ester: None): 0.011 ± 0.006 μg/cm^2/h
Skin penetration rate of AI compound [2, 8]: 0.009 ± 0.007 μg/cm^2/h
Skin penetration rate of AI compound [2, 9]: 0.008 ± 0.009 μg/cm^2/h
Skin penetration rate of AI compound [2, 10]: 0.005 ± 0.008 μg/cm^2/h
Skin penetration rate of AI compound [2, 11]: 7.521 ± 2.312 μg/cm^2/h
Skin penetration rate of AI compound [2, 12]: 7.231 ± 2.386 μg/cm^2/h
Skin penetration rate of AI compound [2, 13]: 9.131 ± 2.321 μg/cm^2/h
Skin penetration rate of AI compound [2, 14]: 7.247 ± 2.076 μg/cm^2/h
Skin penetration rate of AI compound [2, 15]: 7.175 ± 2.257 μg/cm^2/h
Skin penetration rate of AI compound [2, 16]: 9.172 ± 2.117 μg/cm^2/h

Compound: Cc1ncc(CO)c(CO)c1O.Cl [Vitamin B6]
Skin penetration rate of Al compound [2, 5]: 16.531 ± 2.106 μg/cm^2/h
Skin penetration rate of Al compound [2, 6]: 0.023 ± 0.027 μg/cm^2/h
Skin penetration rate of Al compound [2, 7]: 16.751 ± 2.012 μg/cm^2/h
Skin penetration rate of Al compound ([2]; Phenylalanine ester: None): 0.057 ± 0.011 μg/cm^2/h
Skin penetration rate of AI compound [2, 8]: 0.022 ± 0.017 μg/cm^2/h
Skin penetration rate of AI compound [2, 9]: 0.029 ± 0.035 μg/cm^2/h
Skin penetration rate of AI compound [2, 10]: 0.059 ± 0.031 μg/cm^2/h
Skin penetration rate of AI compound [2, 11]: 13.468 ± 2.211 μg/cm^2/h
Skin penetration rate of AI compound [2, 13]: 17.131 ± 2.332 μg/cm^2/h
Skin penetration rate of AI compound [2, 14]: 13.632 ± 2.125 μg/cm^2/h
Skin penetration rate of AI compound [2, 16]: 17.251 ± 2.415 μg/cm^2/h

Compound: Vitamin A
Skin penetration rate of Al compound [2, 4]: 18.347 ± 3.132 μg/cm^2/h
Skin penetration rate of Al compound [2, 5]: 20.015 ± 3.025 μg/cm^2/h
Skin penetration rate of Al compound [2, 6]: 0.021 ± 0.011 μg/cm^2/h
Skin penetration rate of Al compound [2, 7]: 20.177 ± 3.241 μg/cm^2/h
Skin penetration rate of Al compound ([2]; Phenylalanine ester: None): 0.026 ± 0.015 μg/cm^2/h
Skin penetration rate of AI compound [2, 8]: 0.015 ± 0.008 μg/cm^2/h
Skin penetration rate of AI compound [2, 9]: 0.015 ± 0.011 μg/cm^2/h
Skin penetration rate of AI compound [2, 10]: 0.018 ± 0.012 μg/cm^2/h
Skin penetration rate of AI compound [2, 11]: 16.515 ± 3.212 μg/cm^2/h
Skin penetration rate of AI compound [2, 12]: 16.315 ± 3.172 μg/cm^2/h
Skin penetration rate of AI compound [2, 13]: 21.715 ± 3.685 μg/cm^2/h
Skin penetration rate of AI compound [2, 14]: 16.656 ± 3.021 μg/cm^2/h
Skin penetration rate of AI compound [2, 15]: 16.357 ± 3.121 μg/cm^2/h
Skin penetration rate of AI compound [2, 16]: 20.977 ± 3.741 μg/cm^2/h

Results, then the compound that gave them:

Skin penetration rate of Al compound [2, 4]: 10.112 ± 2.322 μg/cm^2/h
Skin penetration rate of Al compound [2, 5]: 10.378 ± 2.155 μg/cm^2/h
Skin penetration rate of Al compound [2, 6]: 0.016 ± 0.012 μg/cm^2/h
Skin penetration rate of Al compound [2, 7]: 10.301 ± 2.022 μg/cm^2/h
Skin penetration rate of Al compound ([2]; Phenylalanine ester: None): 0.017 ± 0.015 μg/cm^2/h
Skin penetration rate of AI compound [2, 8]: 0.011 ± 0.008 μg/cm^2/h
Skin penetration rate of AI compound [2, 9]: 0.008 ± 0.010 μg/cm^2/h
Skin penetration rate of AI compound [2, 10]: 0.007 ± 0.013 μg/cm^2/h
Skin penetration rate of AI compound [2, 11]: 8.526 ± 2.271 μg/cm^2/h
Skin penetration rate of AI compound [2, 12]: 8.256 ± 2.078 μg/cm^2/h
Skin penetration rate of AI compound [2, 13]: 11.136 ± 2.385 μg/cm^2/h
Skin penetration rate of AI compound [2, 14]: 8.369 ± 2.102 μg/cm^2/h
Skin penetration rate of AI compound [2, 15]: 8.378 ± 2.152 μg/cm^2/h
Skin penetration rate of AI compound [2, 16]: 11.345 ± 2.612 μg/cm^2/h
Compound: O=C1O[C@H]([C@@H](O)CO)C(O)=C1O [Vitamin C]

Skin penetration rate of lipoic acid ([2]; HA = 1/2H2SO4, water): 34.012 ± 2.685 μg/cm^2/h
Skin penetration rate of lipoic acid ([2]; HA = 1/3H3PO4, water): 33.25 ± 2.762 μg/cm^2/h
Skin penetration rate of lipoic acid ([2]; HA = 2/3H3PO4, water): 34.124 ± 2.912 μg/cm^2/h
Skin penetration rate of lipoic acid ([2]; HA = Acetic acid, water): 33.513 ± 2.319 μg/cm^2/h
Skin penetration rate of lipoic acid ([2]; HA = Benzoic acid, water): 32.913 ± 4.319 μg/cm^2/h
Skin penetration rate of lipoic acid ([2]; HA = Butyric acid, water): 33.452 ± 3.756 μg/cm^2/h
Skin penetration rate of lipoic acid ([2]; HA = Citric acid, water): 34.013 ± 2.569 μg/cm^2/h
Skin penetration rate of lipoic acid ([2]; HA = H2SO4, water): 33.567 ± 3.125 μg/cm^2/h
Skin penetration rate of lipoic acid ([2]; HA = HBr, water): 34.013 ± 3.219 μg/cm^2/h
Skin penetration rate of lipoic acid ([2]; HA = HCl, water): 33.613 ± 2.819 μg/cm^2/h
Skin penetration rate of lipoic acid ([2]; HA = HF, water): 33.613 ± 3.219 μg/cm^2/h
Skin penetration rate of lipoic acid ([2]; HA = HI, water): 33.572 ± 3.129 μg/cm^2/h
Skin penetration rate of lipoic acid ([2]; HA = Lactic acid, water): 32.987 ± 4.212 μg/cm^2/h
Compound: O=C(O)CCCCC1CCSS1 (stereo not shown) [lipoic acid]

Skin penetration rate of Al compound [2, 4]: 8.127 ± 3.211 μg/cm^2/h
Skin penetration rate of Al compound [2, 5]: 8.156 ± 2.875 μg/cm^2/h
Skin penetration rate of Al compound [2, 6]: 0.016 ± 0.008 μg/cm^2/h
Skin penetration rate of Al compound [2, 7]: 8.236 ± 3.057 μg/cm^2/h
Skin penetration rate of Al compound ([2]; Phenylalanine ester: None): 0.012 ± 0.006 μg/cm^2/h
Skin penetration rate of AI compound [2, 8]: 0.0011 ± 0.006 μg/cm^2/h
Skin penetration rate of AI compound [2, 9]: 0.008 ± 0.009 μg/cm^2/h
Skin penetration rate of AI compound [2, 10]: 0.007 ± 0.011 μg/cm^2/h
Skin penetration rate of AI compound [2, 11]: 6.816 ± 2.372 μg/cm^2/h
Skin penetration rate of AI compound [2, 12]: 6.756 ± 2.325 μg/cm^2/h
Skin penetration rate of AI compound [2, 13]: 8.718 ± 3.125 μg/cm^2/h
Skin penetration rate of AI compound [2, 14]: 6.873 ± 3.061 μg/cm^2/h
Skin penetration rate of AI compound [2, 15]: 6.813 ± 3.111 μg/cm^2/h
Skin penetration rate of AI compound [2, 16]: 8.897 ± 3.211 μg/cm^2/h
Compound: Vitamin B12

Skin penetration rate of Al compound [2, 4]: 19.783 ± 4.025 μg/cm^2/h
Skin penetration rate of Al compound [2, 5]: 21.363 ± 2.015 μg/cm^2/h
Skin penetration rate of Al compound [2, 6]: 0.012 ± 0.006 μg/cm^2/h
Skin penetration rate of Al compound [2, 7]: 21.357 ± 3.120 μg/cm^2/h
Skin penetration rate of Al compound ([2]; Phenylalanine ester: None): 0.016 ± 0.011 μg/cm^2/h
Skin penetration rate of AI compound [2, 8]: 0.016 ± 0.009 μg/cm^2/h
Skin penetration rate of AI compound [2, 9]: 0.012 ± 0.007 μg/cm^2/h
Skin penetration rate of AI compound [2, 10]: 0.008 ± 0.008 μg/cm^2/h
Skin penetration rate of AI compound [2, 11]: 19.321 ± 3.012 μg/cm^2/h
Skin penetration rate of AI compound [2, 12]: 19.723 ± 3.046 μg/cm^2/h
Skin penetration rate of AI compound [2, 13]: 22.783 ± 3.145 μg/cm^2/h
Skin penetration rate of AI compound [2, 14]: 19.412 ± 3.076 μg/cm^2/h
Skin penetration rate of AI compound [2, 15]: 19.611 ± 3.126 μg/cm^2/h
Skin penetration rate of AI compound [2, 16]: 23.657 ± 4.120 μg/cm^2/h
Compound: Vitamin E
